Data published in the supplement of paper PMC10331698.
± gives the standard deviation of the averaged measurements.

Tests used:
Experiment in all cases: level (log10 ratio to DMSO vehicle control); higher = higher biomarker level / cell amount than vehicle control
[1] = compound: O=S(=O)(O)CCC(F)(F)C(F)(F)C(F)(F)C(F)(F)C(F)(F)C(F)(F)C(F)(F)C(F)(F)F [8:2 Fluorotelomer sulfonic acid] (in DMSO)
Description: (§1)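 BioMAP Diversity Plus panel of 12 human primary cell co-culture systems (3C, 4H, LPS, SAg, BT, BF4T, BE3C, CASM3C, HDF3CGF, KF3CT, MyoF, Mphg). Compounds were added 1 h before stimulation and left for 24 h (MyoF 48 h; BT 72 h for soluble read-outs or 6 d for IgG). Biomarkers were read by ELISA, cytotoxicity by SRB, PBMC viability and proliferation by Alamar Blue. Each well value was divided by the mean of 8 DMSO control wells on the same plate and log10 transformed; duplicate blinded samples were tested at 4 concentrations.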

[2] = compound: O=S(=O)(O)C(F)(F)C(F)(F)C(F)(F)C(F)(F)C(F)(F)C(F)(F)C(F)(F)F [Perfluoroheptanesulfonic acid] (in DMSO)
Description: as §1

[3] = compound: O=C(O)C=C(C(F)(F)F)C(F)(F)F [3,3-Bis(trifluoromethyl)-2-propenoic acid] (in DMSO)
Description: as §1

Perfluoroundecanoic acid = compound: O=C(O)C(F)(F)C(F)(F)C(F)(F)C(F)(F)C(F)(F)C(F)(F)C(F)(F)C(F)(F)C(F)(F)C(F)(F)F [Perfluoroundecanoic acid] (in DMSO); conditions: 6700 nM
Description: as §1

[4] = compound: CCOC(=O)CC(=O)C(F)(F)C(F)(F)F [Ethyl pentafluoropropionyl acetate] (in DMSO)
Description: as §1

[5] = compound: OCCC(F)(F)C(F)(F)C(F)(F)C(F)(F)F [4:2 Fluorotelomer alcohol] (in DMSO)
Description: as §1

[6] = compound: OCC(F)(F)OC(F)(F)C(F)(F)OC(F)(F)C(F)(F)OC(F)(F)CO [1H,1H,11H,11H-Perfluorotetraethylene glycol] (in DMSO)
Description: as §1

Row | Test System | level (log10) ([1]; 6700 nM) | level (log10) ([1]; 20000 nM) | level (log10) ([1]; 60000 nM) | level (log10) ([2]; 1500 nM) | level (log10) ([2]; 4400 nM) | level (log10) ([2]; 13000 nM) | level (log10) ([2]; 40000 nM) | level (log10) ([3]; 6700 nM) | level (log10) ([3]; 20000 nM) | level (log10) ([3]; 60000 nM) | level (log10) (Perfluoroundecanoic acid) | level (log10) ([4]; 6700 nM) | level (log10) ([4]; 20000 nM) | level (log10) ([4]; 60000 nM) | level (log10) ([5]; 6700 nM) | level (log10) ([5]; 20000 nM) | level (log10) ([5]; 60000 nM) | level (log10) ([6]; 6700 nM) | level (log10) ([6]; 20000 nM) | level (log10) ([6]; 60000 nM)
1 | 3C:CCL2/MCP-1 | -0.01 ± 0.0085 | -0.0335 ± 0.021 | -0.0185 ± 0.005 | -0.0035 ± 0.005 | -0.0065 ± 0.0021 | 0.002 ± 0.0014 | 0.01 ± 0.0014 | 0.001 ± 0.011 | -0.0065 ± 0.0064 | 0.0015 ± 0.037 | 0.009 ± 0.0042 | -0.012 ± 0.0042 | -0.0185 ± 0.0035 | 0.002 ± 0.0085 | -0.0545 ± 0.074 | -0.0225 ± 0.044 | 0.032 ± 0.011 | -0.001 ± 0.018 | -0.005 ± 0.027 | -0.015 ± 0.0057
2 | 3C:CD54/ICAM-1 | -0.008 ± 0.0099 | 0.003 ± 0.013 | 0.034 ± 0.0042 | 0.0085 ± 0.005 | -0.003 ± 0.0042 | -0.001 ± 0.013 | -0.0015 ± 0.0021 | -0.002 ± 0.0071 | -0.018 ± 0.0071 | -0.0095 ± 0.018 | -0.009 ± 0.0042 | -0.0015 ± 0.012 | -0.01 ± 0.016 | 0.0025 ± 0.022 | -0.025 ± 0.018 | -0.018 ± 0.017 | 0.006 ± 0.0042 | 0.0015 ± 0.00071 | -0.009 ± 0.0071 | 0.007
3 | 3C:CD62E/E-Selectin | 0.013 ± 0.025 | 0.0385 ± 0.0021 | 0.0715 ± 0.0078 | -0.01 ± 0.021 | -0.018 | -0.024 ± 0.017 | 0.005 ± 0.0014 | -0.044 ± 0.0057 | -0.081 | -0.123 ± 0.026 | -0.0135 ± 0.04 | -0.0035 ± 0.013 | -0.007 ± 0.023 | 0.011 ± 0.0071 | -0.019 ± 0.021 | -0.012 ± 0.0014 | -0.0105 ± 0.0078 | -0.0145 ± 0.029 | -0.008 ± 0.038 | -0.0375 ± 0.036
4 | 3C:CD106/VCAM-1 | 0.002 ± 0.0014 | 0.009 ± 0.0028 | 0.019 ± 0.016 | 0.001 ± 0.0042 | -0.011 ± 0.0014 | -0.016 ± 0.0028 | -0.0185 ± 0.00071 | -0.0575 ± 0.03 | -0.0805 ± 0.025 | -0.157 ± 0.017 | -0.001 ± 0.044 | -0.0045 ± 0.0064 | -0.008 ± 0.0057 | -0.015 ± 0.0071 | -0.0205 ± 0.016 | -0.011 ± 0.011 | -0.0095 ± 0.011 | -0.01 ± 0.0057 | -0.015 ± 0.0071 | -0.004 ± 0.011
5 | 3C:CD141/Thrombomodulin | -0.003 ± 0.024 | -0.011 ± 0.034 | 0.0285 ± 0.037 | 0.014 ± 0.013 | -0.0085 ± 0.028 | -0.035 ± 0.064 | -0.042 ± 0.028 | 0.023 ± 0.0057 | 0.0025 ± 0.00071 | 0.0215 ± 0.037 | -0.023 ± 0.047 | -0.013 ± 0.0099 | -0.0185 ± 0.021 | -0.0455 ± 0.00071 | -0.0175 ± 0.013 | -0.001 ± 0.0085 | -0.0005 ± 0.019 | -0.0145 ± 0.039 | 0.005 ± 0.028 | 0.051 ± 0.021
6 | 3C:CD142/Tissue Factor | -0.018 ± 0.065 | 0.001 ± 0.052 | -0.0295 ± 0.046 | 0.0375 ± 0.011 | 0.021 ± 0.031 | 0.048 ± 0.048 | 0.0665 ± 0.1 | 0.0445 ± 0.018 | -0.022 ± 0.037 | -0.138 ± 0.052 | -0.008 ± 0.016 | -0.006 ± 0.0071 | -0.019 ± 0.031 | -0.033 | -0.016 ± 0.018 | -0.04 ± 0.045 | -0.0375 ± 0.00071 | -0.0315 ± 0.037 | -0.009 ± 0.0014 | -0.013 ± 0.05
7 | BE3C:Keratin 8/18 | 0.007 ± 0.0042 | 0.017 ± 0.0085 | 0.043 ± 0.014 | -0.013 ± 0.035 | -0.0065 ± 0.037 | -0.015 ± 0.033 | -0.0185 ± 0.033 | -0.001 ± 0.0014 | -0.0025 ± 0.005 | 0.014 ± 0.031 | -0.045 ± 0.023 | 0.0105 ± 0.022 | 0.0095 ± 0.033 | 0.001 ± 0.0085 | -0.034 ± 0.057 | -0.02 ± 0.02 | 0.0085 ± 0.026 | 0.0025 ± 0.049 | -0.0065 ± 0.00071 | -0.023 ± 0.025
8 | BE3C:MMP-1 | 0.048 ± 0.024 | 0.1715 ± 0.00071 | 0.232 ± 0.027 | 0.011 ± 0.018 | 0.019 ± 0.023 | 0.05 ± 0.021 | 0.133 ± 0.022 | -0.066 ± 0.0099 | -0.0425 ± 0.005 | 0.0305 ± 0.073 | 0.135 ± 0.011 | -0.01 ± 0.013 | -0.023 ± 0.018 | 0.021 ± 0.0014 | -0.023 ± 0.078 | -0.023 ± 0.058 | 0.0145 ± 0.0064 | -0.001 ± 0.0057 | 0.022 | 0.0915 ± 0.057
9 | BE3C:MMP-9 | 0.0045 ± 0.0064 | 0.0325 ± 0.035 | 0.015 ± 0.031 | -0.0015 ± 0.032 | -0.0125 ± 0.081 | -0.025 ± 0.041 | 0.0055 ± 0.04 | -0.0425 ± 0.005 | -0.0735 ± 0.0021 | -0.079 ± 0.027 | -0.139 ± 0.013 | 0.006 ± 0.044 | -0.0145 ± 0.033 | -0.0065 ± 0.013 | 0.0015 ± 0.0078 | -0.014 ± 0.013 | 0.009 ± 0.011 | 0 ± 0.017 | -0.0345 ± 0.0021 | -0.0795 ± 0.0035
10 | BE3C:PAI-I | 0.044 ± 0.014 | 0.126 ± 0.026 | 0.0955 ± 0.011 | 0.016 ± 0.044 | 0.047 ± 0.057 | 0.0385 ± 0.06 | 0.033 ± 0.078 | -0.043 ± 0.0042 | -0.0315 ± 0.005 | -0.0085 ± 0.032 | -0.292 ± 0.023 | 0.008 ± 0.0014 | -0.006 ± 0.014 | 0.0045 ± 0.018 | -0.0355 ± 0.023 | -0.03 ± 0.045 | 0.0365 ± 0.016 | 0.0145 ± 0.012 | -0.0035 ± 0.021 | -0.072 ± 0.018
11 | BE3C:SRB | -0.007 ± 0.0071 | -0.017 | -0.025 ± 0.0085 | 0.015 ± 0.014 | -0.005 ± 0.0099 | -0.0005 ± 0.0021 | -0.0055 ± 0.0064 | -0.005 ± 0.0042 | -0.0025 ± 0.0035 | 0.01 ± 0.0057 | -0.0555 ± 0.012 | -0.002 ± 0.0042 | -0.0015 ± 0.0035 | 0.002 ± 0.0071 | -0.004 | -0.001 ± 0.0014 | -0.0005 ± 0.005 | -0.004 ± 0.0057 | -0.0055 ± 0.00071 | -0.0115 ± 0.00071
12 | BE3C:tPA | 0.0755 ± 0.021 | 0.0535 ± 0.0064 | -0.021 ± 0.0099 | 0.023 ± 0.041 | 0.0415 ± 0.073 | 0.066 ± 0.1 | 0.0595 ± 0.086 | -0.16 ± 0.041 | -0.166 ± 0.0042 | -0.179 ± 0.073 | 0.003 ± 0.0028 | -0.019 ± 0.041 | -0.034 ± 0.038 | -0.028 ± 0.035 | -0.0115 ± 0.0035 | -0.015 | 0.013 ± 0.016 | -0.0145 ± 0.035 | -0.0265 ± 0.044 | -0.008 ± 0.061
